# Assay results published in patent publication US9751885B2, “Cyclopropanamine compound and use thereof” (Takeda Pharmaceutical Company Limited, priority 2012, dated 2017).
# Structures can show the parent of a compound that is named as a salt. Where two headings read alike, the source gives them in different places.
# Tests used:
# [1] = Evaluation of hippocampal distribution in mouse; assay type: in vivo; conditions: male ICR mice, 10 mg/kg oral; for concentration at 0.5 h / Kp at 0.5 h: 0.5 hr after administration
# Description: Evaluation of Hippocampal Distribution in Mouse
# (§1) Male ICR mice (hereinafter mice) were acclimated for at least one week in a rearing facility. The mice were raised in a rearing room with controlled temperature and humidity under a 12:12 hour light-dark cycle, and allowed free ingestion of feed and water.
# The compounds were suspended in 0.5% methylcellulose/0.02% citric acid/distilled water and orally administered. All compounds were administered to the mice at a dose of 10 mg/kg (body weight).
# Blood samples were collected at 0.5 hr, or 1 hr, or 1.5 hr from compound administration, and the hippocampus was isolated simultaneously. The plasma concentration and hippocampus concentration of each test compound were measured by the LC/MS/MS method, the ratio (hippocampus/plasma concentration ratio) was calculated, and distribution into hippocampus was evaluated.
# [2] = tested on: white blood cell number, red blood cell number, platelet number; test: Evaluation of blood cell number in mouse; assay type: in vivo; conditions: oral, Day 2 after administration
# Description: Evaluation of Blood Cell Number in Mouse
# as §1
# The compounds were suspended in 0.5% methylcellulose/0.02% citric acid/distilled water and orally administered. All compounds were administered to the mice at a dose of 1 mg/kg, 10 mg/kg, 50 mg/kg or 100 mg/kg (body weight). On Day 2 after the administration of the compound, the whole blood was collected.
# Using Sysmex XT-1800i (Sysmex Corporation), the white blood cell number, red blood cell number, and platelet number in the collected whole blood per unit volume were measured. The influence of each compound on each blood cell number was determined by comparing the number with the mean of each blood cell number of the mouse without administration of the compound (control group), and the numerical value of each blood cell number of a mouse with the administration of the compound is shown in percentage. percentage (%) of blood cell number of compound administration group as compared to control group=(mean blood cell number of compound administration group mean blood cell number of compound non-administration group)×100
# [3] = hippocampus, read-out: hippocampus concentration (mean)
# [4] = hippocampus/plasma, read-out: hippocampus/plasma concentration ratio (mean)
# [5] = plasma, read-out: plasma concentration (mean)
# [6] = hippocampus, 1 hr after administration, read-out: hippocampus concentration (mean)
# [7] = plasma, 1 hr after administration, read-out: plasma concentration (mean)
SMILES,"concentration at 0.5 h [1, 3] [ng/g]","Kp at 0.5 h [1, 4]","concentration at 0.5 h [1, 5] [ng/mL]","platelet number, percentage of compound administration group compared to control group, mean ([2]; 10 mg/kg) [%]","red blood cell number, percentage of compound administration group compared to control group, mean ([2]; 10 mg/kg) [%]","white blood cell number, percentage of compound administration group compared to control group, mean ([2]; 10 mg/kg) [%]","platelet number, percentage of compound administration group compared to control group, mean ([2]; 100 mg/kg) [%]","red blood cell number, percentage of compound administration group compared to control group, mean ([2]; 100 mg/kg) [%]","white blood cell number, percentage of compound administration group compared to control group, mean ([2]; 100 mg/kg) [%]","concentration at 1 h [1, 6] [ng/g]","concentration at 1 h [1, 7] [ng/mL]","concentration at 1.5 h ([1]; hippocampus, 1.5 hr after administration, read-out: hippocampus concentration (mean)) [ng/g]","Kp at 1.5 h ([1]; hippocampus/plasma, 1.5 hr after administration, read-out: hippocampus/plasma concentration ratio (mean))","concentration at 1.5 h ([1]; plasma, 1.5 hr after administration, read-out: plasma concentration (mean)) [ng/mL]","Kp at 1 h ([1]; hippocampus/plasma, 1 hr after administration, read-out: hippocampus/plasma concentration ratio (mean))"
"Cc1nnc(NC(=O)c2cc([C@@H]3C[C@H]3NC3CCC(F)(F)CC3)ccc2F)s1 (relative stereo) [Example 223, 5-(trans-2-((4,4-difluorocyclohexyl)amino)cyclopropyl)-2-fluoro-N-(5-methyl-1,3,4-thiadiazol-2-yl)benzamide dihydrochloride]",2390,1.69,1400,94.8,101.2,114.5,98.9,100.4,121.7,,,,,,
"Cc1nnc(NC(=O)c2cccc([C@@H]3C[C@H]3NC3CCC3)c2)s1 (relative stereo) [Example 174, 3-(trans-2-(cyclobutylamino)cyclopropyl)-N-(5-methyl-1,3,4-thiadiazol-2-yl)benzamide hydrochloride]",,,,97.9,95.4,97.4,93.7,100.2,100.6,1280,1250,,,,
"O=C(NC1CCOCC1)c1cc([C@@H]2C[C@H]2NCC2CC2)ccc1F (relative stereo) [Example 111, 5-(trans-2-((cyclopropylmethyl)amino)cyclopropyl)-2-fluoro-N-(tetrahydro-2H-pyran-4-yl)benzamide hydrochloride]",1300,1.59,823,101.2,98.7,136.9,98.4,99.1,97.9,,,,,,
"Cc1nnc(NC(=O)c2ccc(C)c([C@@H]3C[C@H]3NC3CCOCC3)c2)s1 (relative stereo) [Example 185, 4-methyl-N-(5-methyl-1,3,4-thiadiazol-2-yl)-3-(trans-2-(tetrahydro-2H-pyran-4-ylamino)cyclopropyl)benzamide hydrochloride]",581,0.58,1020,90.4,102.0,88.0,84.7,100.7,129.9,,,,,,
"Cc1nnc(NC(=O)c2cc([C@@H]3C[C@H]3NC3CCC3)ccc2F)s1 (relative stereo) [Example 183, 5-(trans-2-(cyclobutylamino)cyclopropyl)-2-fluoro-N-(5-methyl-1,3,4-thiadiazol-2-yl)benzamide dihydrochloride]",,,,96.4,98.5,88.1,86.6,97.5,114.9,,,884,1.35,651,
"Cc1cc(NC(=O)c2cccc([C@@H]3C[C@H]3NC3CCC(F)(F)CC3)c2)n(C)n1 (relative stereo) [Example 215, 3-(trans-2-((4,4-difluorocyclohexyl)amino)cyclopropyl)-N-(1,3-dimethyl-1H-pyrazol-5-yl)benzamide dihydrochloride]",481,0.31,1570,100.7,98.4,113.3,91.2,99.8,124.7,,,,,,
"Cn1cc(NC(=O)c2cccc([C@@H]3C[C@H]3NC3CCC3)c2)cn1 (relative stereo) [Example 169, 3-(trans-2-(cyclobutylamino)cyclopropyl)-N-(1-methyl-1H-pyrazol-4-yl)benzamide dihydrochloride]",,,,102.2,105.1,99.1,100.7,103.7,109.2,396,707,,,,0.56
"Cn1cc(NC(=O)c2cccc([C@@H]3C[C@H]3NC3CCN(CC(F)(F)F)CC3)c2)cn1 (relative stereo) [Example 171, N-(1-methyl-1H-pyrazol-4-yl)-3-(trans-2-((1-(2,2,2-trifluoroethyl)piperidin-4-yl)amino)cyclopropyl)benzamide trihydrochloride]",266,0.2,1310,114.6,98.5,133.3,104.8,98.9,133.9,,,,,,
